The results in this text go back to patent publication US4868208A, “Antifungal agent and method” (Merck & Co., Inc., priority 1988, dated 1989).

The test system of the experiment is Cryptococcus neoformans. Nature of the experiment: Agar dilution assay (MIC) against an expanded panel of 84 Cryptococcus neoformans strains. The experiment is classed as cell-based. Conditions: 84 Cryptococcus neoformans isolates, yeast nitrogen base dextrose agar, 0.008 to 16.0 μg/ml. The procedure: Such activity may be illustrated with test results against Cryptococcus neoformans employing yeast nitrogen base dextrose agar medium. In carrying out the assay, Compound Ia' was solubilized in 10 percent dimethyl sulfoxide (DMSO) supplemented with one drop of Tween 20. Twofold dilutions were made with sterile distilled water/10 percent DMSO to obtain final drug concentrations in the agar dilution assay plates ranging from 0.008 to 16.0 μg/ml against an expanded panel of 84 Cryptococcus neoformans strains.
The minimum inhibitory concentration against the expanded panel of 84 Cryptococcus neoformans isolates may be summarized as follows: […]

Some results are limits rather than exact numbers.

With `COC(=O)C(C)CNC(=O)C(Cc1ccc(OC)c(Cl)c1)NC(=O)C=CCC(OC(=O)C(O)CC(C)C)C(C)C1OC1c1ccccc1` (stereo not drawn) [Compound Ia', 5-[[2-[[2-(methoxycarbonyl)propyl]amino]-1-[(3-chloro-4-methoxyphenyl)methyl]-2-oxoethyl]amino]-5-oxo-1-[1-(3-phenyloxiranyl)ethyl]-3-pentenyl 2-hydroxy-4-methylpentanoate], the “MIC50 (concentration at which 50% of the strains were inhibited)” value turned out to be 8.0 µg/mL and the “MIC90 (concentration at which 90% of the strains were inhibited)” value is 8.0 µg/mL. For the same compound, the “G-MIC (geometric means of MIC)” value (10 percent DMSO/Tween 20) was > 6.11 µg/mL.
